Results from patent publication US9801901B2, “Alginate oligomers for use in overcoming multidrug resistance in bacteria” (priority 2009, dated 2017).
≈ marks a conversion by molar mass, not a printed value. Like-named read-outs stand apart in the source and are kept apart here. Marks after values point to notes of the source that are not given here.

Columns and labels:
[1] = test system: V10 (Egypt) Acinetobacter lwoffii; test: MIC assay, CAMHB with alginate oligomer, no visible growth; format: cell-based; conditions: Table 5, V10 MDR Acin. lwoff
[2] = test system: Streptococcus oralis; test: MIC-assay, Mueller-Hinton broth with G-block alginate, 384-well, OD600 (Table 12); format: cell-based; conditions: Streptococcus oralis (5610, V17) MDR
Excerpt: (§1) Minimum inhibitory concentration (MICs) of different antibiotics for strains of Streptococcus oralis and Staphylococcus aureus (MRSA) displaying MDR phenotypes in the presence of varying concentrations of OligoCF-5/20 (0-10%). (MIC values are expressed in μg ml^−1).

[3] = test system: Staphylococcus aureus (MRSA) U50; test: as above; format: cell-based; conditions: MRSA 1040s, U50 MDR
Excerpt: as §1

[4] = test system: Acinetobacter baumannii (MDR ACB, Libya, V4); test: MIC-assay, Mueller-Hinton broth with G-block alginate, 384-well, OD600
[5] = test system: Pseudomonas aeruginosa CFA 24-1, clinical mucoid strain (R80); test: MIC assay, CAMHB with alginate oligomer, no visible growth; format: cell-based; conditions: Pseudomonas aeruginosa, read-out: MIC
[6] = test system: V5 AIM-1 E. coli; test: as above; format: cell-based; conditions: Escherichia coli, Table 4, V5 MDR E. coli
Excerpt: (§2) The study described in Example 1 was repeated with the following strains of bacteria and antibiotics as detailed in Tables 4, 5 and 6.

[7] = test system: V23 1322 Burkholderia cepacia; test: as above; format: cell-based
[8] = test system: Pseudomonas aeruginosa (R22, PSA, V1); test: MIC-assay, Mueller-Hinton broth with G-block alginate, 384-well, OD600; conditions: Table 8, G-block (OligoCF-5/20) 0%
[9] = test system: Acinetobacter baumannii MDR ACB from Libya (V4); test: MIC assay, CAMHB with alginate oligomer, no visible growth; format: cell-based; conditions: Acinetobacter baumannii, read-out: MIC
Excerpt: as §2
(§3) The study described in Example 1 was repeated with the following strains of Acinetobacter baumannii, antibiotics and M-block alginate oligomer in place of OligoG CF-5/20 as detailed in Table 7. The M-block oligomer is 100% M with a DPn of 15 to 18,

[10] = test system: Klebsiella pneumoniae KP05 506 from India (V3); test: as above; format: cell-based; conditions: for MIC: Klebsiella pneumoniae, Table 1, V3 KP05 506, read-out: MIC
[11] = test system: V19 non MDR Acinetobacter baumannii; test: MIC assay, CAMHB with M-block alginate oligomer, no visible growth; format: cell-based; conditions: Table 7, V19 non MDR Acin. baum
Excerpt: as §3

[12] = Acinetobacter lwoffii, OligoCF-5/20 0G, read-out: MIC
[13] = G-block (OligoCF-5/20) 0%, read-out: MIC
[14] = G-block (OligoCF-5/20) 2%, read-out: MIC
[15] = Burkholderia cepacia, Table 5, V23 MDR Burk cep, OligoCF-5/20 0G, read-out: MIC
[16] = Table 5, V23 MDR Burk cep, OligoCF-5/20 +10% G
[17] = Table 6, V23, Experiment 1 (18-03-10), OligoCF-5/20 +10% G
[18] = Table 6, V23, Experiment 3 (19-03-10), OligoCF-5/20 +10% G

CC[C@H]1OC(=O)[C@H](C)[C@@H](O[C@H]2C[C@@](C)(OC)[C@@H](O)[C@H](C)O2)[C@H](C)[C@@H](O[C@@H]2O[C@H](C)C[C@H](N(C)C)[C@H]2O)[C@](C)(O)C[C@@H](C)C(=O)[C@H](C)[C@@H](O)[C@]1(C)O [Erythromycin]
MIC [1, 12]: < 0.5 µg/mL | MIC ([1]; OligoCF-5/20 +2% G): <0.5 µg/mL | MIC ([1]; OligoCF-5/20 +6% G): <0.5 µg/mL | MIC ([1]; OligoCF-5/20 +10% G): <0.5 µg/mL | MIC [2, 13]: 2 µg/mL (≈ 2.73 µM) | MIC [2, 14]: 16 µg/mL (≈ 21.8 µM) | MIC ([2]; G-block (OligoCF-5/20) 6%): 0.0312 µg/mL (≈ 0.0426 µM) | MIC ([2]; G-block (OligoCF-5/20) 10%): 0.0625 µg/mL (≈ 0.0852 µM) | MIC [3, 13]: > 1020 µg/mL | MIC [3, 14]: > 1020 µg/mL | MIC ([3]; G-block (OligoCF-5/20) 6%): 1020 µg/mL (≈ 1400 µM) | MIC ([3]; G-block (OligoCF-5/20) 10%): 512 µg/mL (≈ 698 µM) | MIC ([4]; Table 9, G-block (OligoCF-5/20) 0%): 32 µg/mL (≈ 43.6 µM) | MIC ([4]; Table 9, G-block (OligoCF-5/20) 2%): 8 µg/mL (≈ 10.9 µM) | MIC ([4]; Table 9, G-block (OligoCF-5/20) 6%): 4 µg/mL (≈ 5.45 µM) | MIC ([4]; Table 9, G-block (OligoCF-5/20) 10%): 2 µg/mL (≈ 2.73 µM) | MIC ([5]; Table 4, R80 non MDR (muc.), OligoCF-5/20 0G): 512 µg/mL (≈ 698 µM) | MIC ([5]; Table 4, R80 non MDR (muc.), OligoCF-5/20 +6% G): 128 µg/mL (≈ 174 µM) | MIC ([5]; Table 4, R80 non MDR (muc.), OligoCF-5/20 +10% G): 32 µg/mL (≈ 43.6 µM) | MIC ([6]; OligoCF-5/20 0G): 4 µg/mL (≈ 5.45 µM) | MIC ([6]; OligoCF-5/20 +2% G): 4 µg/mL (≈ 5.45 µM) | MIC ([6]; OligoCF-5/20 +6% G): ≤ 1 µg/mL | MIC ([6]; OligoCF-5/20 +10% G): ≤ 1 µg/mL | MIC [7, 15]: 512 µg/mL (≈ 698 µM) | MIC ([7]; Burkholderia cepacia, Table 6, V23, Experiment 1 (18-03-10), OligoCF-5/20 0G, read-out: MIC): 512 µg/mL (≈ 698 µM) | MIC ([7]; Burkholderia cepacia, Table 6, V23, Experiment 3 (19-03-10), OligoCF-5/20 0G, read-out: MIC): > 512 µg/mL | MIC [7, 16]: 16^† μg/ml | MIC [7, 17]: 64^† μg/ml | MIC ([7]; Table 6, V23, Experiment 2 (18-03-10), OligoCF-5/20 +6% G): 64^† μg/ml | MIC ([7]; Table 6, V23, Experiment 2 (18-03-10), OligoCF-5/20 +10% G): 64^† μg/ml | MIC ([7]; Table 6, V23, Experiment 3 (19-03-10), OligoCF-5/20 +6% G): 64^† μg/ml | MIC [7, 18]: 16^† μg/ml | MIC [8]: > 512 µg/mL | MIC ([9]; Table 4, V4 MDR (Libya), OligoCF-5/20 0G): 8 µg/mL (≈ 10.9 µM) | MIC ([9]; Table 4, V4 MDR (Libya), OligoCF-5/20 +2% G): 2 µg/mL (≈ 2.73 µM) | MIC ([9]; Table 4, V4 MDR (Libya), OligoCF-5/20 +6% G): ≤ 1 µg/mL | MIC ([9]; Table 4, V4 MDR (Libya), OligoCF-5/20 +10% G): ≤ 1 µg/mL

C[C@@H](O)[C@H]1C(=O)N2C(C(=O)O)=C(S[C@@H]3CN[C@H](C(=O)N(C)C)C3)[C@H](C)[C@H]12 [Meropenem]
effectiveness in conjunction with alginate oligomers ([10]; Example 1, KP05 506): inconclusive | MIC ([10]; OligoCF-5/20 0G): 64 µg/mL (≈ 167 µM) | MIC ([10]; OligoCF-5/20 +2% G): 64 µg/mL (≈ 167 µM) | MIC ([11]; M-block oligomer 0M): 8 µg/mL (≈ 20.9 µM) | MIC ([11]; M-block oligomer +2% M): 4 µg/mL (≈ 10.4 µM) | MIC ([11]; M-block oligomer +6% M): 2 µg/mL (≈ 5.22 µM) | MIC ([11]; M-block oligomer +10% M): 1 µg/mL (≈ 2.61 µM) | MIC [1, 12]: 1 µg/mL (≈ 2.61 µM) | MIC ([1]; OligoCF-5/20 +2% G): 0.5^† μg/ml | MIC ([1]; OligoCF-5/20 +6% G): <0.25^† μg/ml | MIC ([1]; OligoCF-5/20 +10% G): <0.25^† μg/ml | MIC ([5]; Table 1, R80, OligoCF-5/20 0G): < 1 µg/mL | MIC ([5]; Table 1, R80, OligoCF-5/20 +2% G): < 1 µg/mL | MIC ([5]; Table 1, R80, OligoCF-5/20 +6% G): < 1 µg/mL | MIC ([5]; Table 1, R80, OligoCF-5/20 +10% G): < 1 µg/mL | MIC [7, 15]: 64 µg/mL (≈ 167 µM) | MIC ([7]; Table 5, V23 MDR Burk cep, OligoCF-5/20 +2% G): 64 µg/mL (≈ 167 µM) | MIC ([7]; Table 5, V23 MDR Burk cep, OligoCF-5/20 +6% G): 32^† μg/ml | MIC [7, 16]: 8^† μg/ml | MIC ([7]; Table 6, V23, Experiment 1 (18-03-10), OligoCF-5/20 +6% G): 64^† μg/ml | MIC [7, 17]: 64^† μg/ml | MIC ([7]; Table 6, V23, Experiment 3 (19-03-10), OligoCF-5/20 +2% G): 64^† μg/ml | MIC [7, 18]: 64^† μg/ml | MIC ([9]; Table 1, V4 ACB (Libya), OligoCF-5/20 0G): < 4 µg/mL | MIC ([9]; Table 1, V4 ACB (Libya), OligoCF-5/20 +2% G): < 4 µg/mL | MIC ([9]; Table 1, V4 ACB (Libya), OligoCF-5/20 +6% G): < 4 µg/mL | MIC ([9]; Table 1, V4 ACB (Libya), OligoCF-5/20 +10% G): < 4 µg/mL | MIC ([9]; Table 7, V4 MDR Acin baum (Libya), M-block oligomer 0M): 16 µg/mL (≈ 41.7 µM) | MIC ([9]; Table 7, V4 MDR Acin baum (Libya), M-block oligomer +2% M): 32 µg/mL (≈ 83.4 µM) | MIC ([9]; Table 7, V4 MDR Acin baum (Libya), M-block oligomer +6% M): 16 µg/mL (≈ 41.7 µM) | MIC ([9]; Table 7, V4 MDR Acin baum (Libya), M-block oligomer +10% M): 8 µg/mL (≈ 20.9 µM)
